Converted amounts (≈) assume the structure as drawn.
Tests used:
[1] = Solubility of eplerenone in pure solubilizers at room temperature; type: physicochemical; conditions: organic solvent or mixture
Method: Preparation of a pharmaceutically acceptable parenteral eplerenone formulation is therefore made difficult by the fact that (a) the solubility of eplerenone in many otherwise parenterally acceptable solubilizers, even in such solubilizers in pure form, is very low, (b) eplerenone dose requirements are relatively high (e.g. about 50 mg/day or more), and (c) the concentration and/or total amount of many parenterally acceptable solubilizers which can be safely parenterally delivered to a subject is relatively low.

[2] = Storage stability of eplerenone solution formulations SF-2 to SF-5 at different pH, HPLC (Example 2); type: physicochemical; conditions: storage at various temperatures and for various time periods
From the text: The pH of each formulation was adjusted as indicated.
Aliquots of each solution formulation were stored at four different temperatures for a period of 12 weeks. Degradation of eplerenone was monitored via high performance liquid chromatography (HPLC) throughout storage.
Cells in Table 3 which have the symbol “--” therein indicate that no stability data was collected for that particular time and storage temperature.

solubility ([1]; pure glycerin, room temperature): < 1600 µg/mL
solubility ([1]; pure polyethylene glycol 400, room temperature): 3300 to 5700 µg/mL (≈ 7.96 to 13.8 mM)
solubility ([1]; pure propylene glycol, room temperature): < 300 µg/mL
Structure (SMILES): COC(=O)[C@@H]1CC2=CC(=O)CC[C@]2(C)[C@@]23O[C@@H]2C[C@@]2(C)[C@@H](CC[C@@]24CCC(=O)O4)[C@H]13 [eplerenone, methyl hydrogen 9,11α-epoxy-17α-hydroxy-3-oxopregn-4-ene-7α,21-dicarboxylate, γ-lactone]
stability of eplerenone in solution by pH (in words) [2]: more stable in a solution maintained at a pH of 5 than at a pH of 2, 7 or 9
